This is an account of results in patent US8809314B1, “Cephalosporin compound” (Cubist Pharmaceuticals, Inc., priority 2012, dated 2014).

≈ marks a conversion by molar mass, not a printed value. Where “and” joins values, the source holds several entries; their conditions need not be identical. Identical values can stand only once. A value given as a limit tells only on which side of the number the result lay.

What is called MIC is the smallest concentration in the dilution series that meets the test's criterion for growth inhibition.

The test system of test [1] is MRSA #712. Put plainly: Mouse septicemia (systemic infection), PD50. Type of test: in vivo, Staphylococcus aureus. As to conditions: CD-1 mice, IP inoculum, 2 SC doses at 1 and 6 hrs, 7 day survival. The method, then:
(§1) In vivo efficacy of (I) was evaluated against strains of MRSA, and ceftazidime-resistant Pa and Klebsiella pneumonia (Kpn) in mouse septicemia, thigh and lung infections. Septicemia: CD-1 mice received lethal bacterial inocula IP, followed by 2 doses of antibiotics SC at 1 and 6 hrs post-inoculation. Dose calculated to protect 50% of the mice (PD50) was derived based on probit analysis of percentage survival. Thigh and lung infections: Thighs or lungs of neutropenic mice were inoculated with MRSA or Pa. Two treatment doses were given SC at 1 and 6 hrs post-inoculation. Tissues were harvested at ˜24 hrs post-inoculation and bacterial burdens quantified.
II. […] MIC was determined in MHB by standard CLSI microdilution. […] The survival of animals was recorded daily for 7 days. The antibiotic dose calculated to protect 50% of the mice (PD50) was derived based on probit analysis of percentage survival. • E. Mouse Thigh and Lung Infections: Mice were rendered neutropenic by two IP injections of cyclophosphamide 4 days (150 mg/kg) and 1 day (100 mg/kg) before bacterial inoculation. […] Tissue bacterial burdens were quantified by serial dilution and spiral plating of homogenates.
(§2) III. […] The dose that protected 50% of the mice (PD50) was calculated by probit analysis based on percentage of mice surviving for 7 days post-inoculation. • C. […]

The test system of test [2] is Pseudomonas aeruginosa #44 (ATCC#27853). In words: Mouse septicemia (systemic infection), PD50. Type of test: in vivo. As to conditions: Pa #44 (ATCC27853); CD-1 mice, IP inoculum, 2 SC doses at 1 and 6 hrs, 7 day survival. The method, then:
as §1
(§3) II. Methods • A. Animals: Six week-old, specific pathogen free, female CD-1 mice purchased from Charles River Laboratories (Wilmington, Mass.) were used for all studies after acclimation in Cubist animal facility. All animal procedures were approved by the Cubist Institutional Animal Care and Use Committee. • B. Bacteria and In Vitro Susceptibility Testing: MRSA #712, Pseudomonas aeruginosa #2245 and #2545, and Klebsiella pneumoniae #573 are clinical isolates; Pseudomonas aeruginosa #44 is an ATCC strain (ATCC#27853). MIC was determined in MHB by standard CLSI microdilution. […] The survival of animals was recorded daily for 7 days. The antibiotic dose calculated to protect 50% of the mice (PD50) was derived based on probit analysis of percentage survival. • E. Mouse Thigh and Lung Infections: Mice were rendered neutropenic by two IP injections of cyclophosphamide 4 days (150 mg/kg) and 1 day (100 mg/kg) before bacterial inoculation. […] Tissue bacterial burdens were quantified by serial dilution and spiral plating of homogenates.
as §2

Test [3] concerns ceftazidime-resistant Pseudomonas aeruginosa #2545. It is filed as in vivo. The following applies: Pa #2545; CD-1 mice, IP inoculum, 2 SC doses at 1 and 6 hrs, 7 day survival. The method, then: as §1
as §3, with “All animal procedures were approved by the Cubist Institutional Animal Care and Use Committee. • B. Bacteria and In Vitro Susceptibility Testing: MRSA #712, Pseudomonas aeruginosa #2245 and #2545, and Klebsiella pneumoniae #573 are clinical isolates; Pseudomonas aeruginosa #44 is an ATCC strain (ATCC#27853).” left out

Test [4] has as its system Klebsiella pneumoniae #573. In words: Mouse septicemia (systemic infection), PD50. Type of test: in vivo. The following applies: Kpn #573; CD-1 mice, IP inoculum, 2 SC doses at 1 and 6 hrs, 7 day survival. The method, then:
as §1
as §3, with “All animal procedures were approved by the Cubist Institutional Animal Care and Use Committee. • B. Bacteria and In Vitro Susceptibility Testing: MRSA #712, Pseudomonas aeruginosa #2245 and #2545, and Klebsiella pneumoniae #573 are clinical isolates; Pseudomonas aeruginosa #44 is an ATCC strain (ATCC#27853).” left out

Test [5] deals with MRSA #712. Put plainly: Thigh infection in neutropenic mice. Type of test: in vivo, Staphylococcus aureus. The following applies: MRSA #712 thigh infection, neutropenic mice, 2 SC doses at 1 and 6 hrs, 24 h, vs vehicle. The method, then:
as §1, §3

Test [6] relates to ceftazidime-resistant Pseudomonas aeruginosa #2545. In words: Lung infection in neutropenic mice. Type of test: in vivo. The following applies: Pa #2545 lung infection, neutropenic mice. The method, then:
as §1
(§4) II. Methods • A. Animals: Six week-old, specific pathogen free, female CD-1 mice purchased from Charles River Laboratories (Wilmington, Mass.) were used for all studies after acclimation in Cubist animal facility. All animal procedures were approved by the Cubist Institutional Animal Care and Use Committee. • B. Bacteria and In Vitro Susceptibility Testing: MRSA #712, Pseudomonas aeruginosa #2245 and #2545, and Klebsiella pneumoniae #573 are clinical isolates; Pseudomonas aeruginosa #44 is an ATCC strain (ATCC#27853). MIC was determined in MHB by standard CLSI microdilution. Comparator Antibiotics Used in Animal Studies: Vancomycin hydrochloride USP was purchased from Hospira (Lake Forest, Ill.); ceftazidime hydrate from Sigma; Primaxin (imipenem and cilastatin) from Merck; ceftaroline was synthesized at a CRO. • D. Mouse Septicemia: Mice received lethal inocula of bacteria in 6% hog gastric mucin intraperitoneally (IP), followed by two treatment doses of antibiotics via subcutaneous (SC) administration at 1 and 6 hrs post-inoculation. The survival of animals was recorded daily for 7 days. The antibiotic dose calculated to protect 50% of the mice (PD50) was derived based on probit analysis of percentage survival. • E. Mouse Thigh and Lung Infections: Mice were rendered neutropenic by two IP injections of cyclophosphamide 4 days (150 mg/kg) and 1 day (100 mg/kg) before bacterial inoculation. Thigh or lung infection was induced by an intramuscular injection of 0.2 mL or intranasal inoculation of 0.1 mL inoculum preparation from an overnight bacterial culture into left thigh or nares. Tissues from one group of mice receiving no treatment (No Rx) were harvested at 1 hr for determination of baseline of bacterial burden. The remaining mice received two treatment doses of vehicles or antibiotics given SC at 1 and 6 hrs post-inoculation. Tissues from the treated mice were harvested at ˜24 hrs post-inoculation. Tissue bacterial burdens were quantified by serial dilution and spiral plating of homogenates.

For test [7], the system named is ceftazidime-susceptible Pseudomonas aeruginosa #2245. Put plainly: Lung infection in neutropenic mice. It is filed as in vivo. As to conditions: Pa #2245 lung infection, 3-log CFU reduction vs vehicle at 24 h. The method, then:
as §1, §4

In test [8] the test system is ceftazidime-susceptible Pseudomonas aeruginosa #44 (ATCC#27853). Put plainly: Lung infection in neutropenic mice. As to conditions: Pa #44 lung infection. Type of test: in vivo. The method, then: as §1, §4
Another test has as its system Kpn #573. Put plainly: MIC in MHB by standard CLSI microdilution (Example 4). It is filed as cell-based. As to conditions: Klebsiella pneumoniae; Kpn #573; read-out: MIC.
Excerpt: as §4
In general terms: Broth dilution looks for growth in wells or tubes with falling amounts of substance.

In test [9] the test system is MRSA #712. The description is as above. Type of test: cell-based. The following applies: Staphylococcus aureus; MRSA #712; read-out: MIC.
Excerpt: as §4

A further test has as its system Pa #2545. The description is as above. Type of test: cell-based. The following applies: Pseudomonas aeruginosa.
Excerpt: as §4

The subject of another test is Pa #44 (ATCC27853). The test is described as above. As to conditions: Pseudomonas aeruginosa. It is filed as cell-based.
Excerpt: as §4

Where [10] appears, read: 2 SC doses at 1 and 6 hrs, 24 h, vs vehicle.
[11] abbreviates: 3-log CFU reduction vs vehicle at 24 h.

In the case of `CO/N=C(\C(=O)N[C@@H]1C(=O)N2C(C(=O)[O-])=C(C[n+]3ccc(N)c(NC(=O)Nc4ccc(CCNC(=N)N)cc4)c3)CS[C@H]12)c1nc(N)sc1Cl` [(I)], the “Septicemia PD50 (± SE)” value with MRSA #712 [1] was 2.0 ± 0.3 mg/kg; in [2], 5.3 ± 0.7 mg/kg; in test [3] it was less than 10.4 mg/kg; in [4] it was less than 1.3 mg/kg. In the test with MRSA #712 [5], the “Thigh (T) ED−2log” value was 68.9 mg/kg and 68.9 (T) mg/kg. For the same compound, the “Lung (L) ED−2log” value in test [6] (setting [10]) was 6.7 (L) mg/kg; in test [8] (setting [10]), 1.8 (L) mg/kg. Moreover, the “ED−3 log” value in test [6] (setting [11]) turned out to be 11.4 mg/kg; in [7] it was 5.2 mg/kg; in test [8] (setting [11]), 4.1 mg/kg. Moreover, the MIC was determined as 1 µg/mL (≈ 1.35 µM) in the test on Kpn #573, 2 µg/mL (≈ 2.69 µM) with MRSA #712 [9], 2 µg/mL (≈ 2.69 µM) in the test with Pa #2545 and 1 µg/mL (≈ 1.35 µM) against Pa #44 (ATCC27853).
